Assay results reported in US20100124537A1 (priority 2007, published 2010).
“Also recorded” adds a separate entry of the source. Read-outs that look alike come from different tables or passages of the source.

How the values were obtained:
H. pylori, strain 119/95 [1] = experiment: Mice infectious model with H. pylori, three intragastric doses of alpha-ketoglutaric acid salts, culture on GAB-CAMP agar (Example 2); assay type: in vivo, BALB/cA mice; details: for H. pylori colonies cultured from gastric mucosa: infected mice treated 3 consecutive days, 8 days after infection (Group III B); for effect on colonisation of gastric mucosa by H. pylori: three intragastric administrations on 3 consecutive days, started 8 days after last infective dose
Protocol: Eight days after the last challenge, sixteen mice were inoculated intragastrically through the tube for three successive days with 0.2 ml of 30 mM solution of salts of alpha-ketoglutaric acid (group III B). The remaining eight mice were sham-treated with 0.2 ml of 0.01 M PBS (group III) according to the procedure with group III.
Eight days after above treatment sixteen mice were inoculated with the tube for three consecutive days with salts of […] (0.2 ml, concentration 30 mM) (group IV B). The remaining eight mice were treated with 0.2 ml 0.01 M PBS (group IV).
Stomach and blood were samples were collected for the further studies.
(§1) DNA was also isolated to perform PCR with primers (5′-[…]-3′ and 5′-[…]-3′) recognizing 16S rDNA fragment in DNA of bacteria from Helicobacter genus. Afterwards PCR products in size 470 by were separated according to denaturating gradient gel electrophoresis technique (DGGE) and sequenced. […] Electrophoresis run at a temp of 60° C. in 125 V during 16 h.

[2] = test system: bacteria from Helicobacter genus (16S rDNA); experiment: 16S rDNA PCR, DGGE and sequencing of stomach mucosa homogenates (Example 2); assay type: in vivo, BALB/cA mice; details: for H. pylori DNA / sequences specific for H. pylori in PCR products: infected mice treated with alpha-ketoglutarate (Group III B), ethidium bromide staining
Protocol: as §1

[3] = Morphology of stomach and small intestine mucosa in mice given alpha-ketoglutarate; assay type: in vivo; details: mice infected with H. pylori and following inoculation with alpha-ketoglutarate
lactic acid bacteria = experiment: Lactic acid bacteria isolated from scraped stomach mucosa (antral part); assay type: in vivo; details: animals tested, including mice infected with H. pylori and then inoculated with alpha-ketoglutarate
H. pylori infection = experiment: Volunteers with confirmed H. pylori infection taking the calcium salt with a milk drink (Example 4); assay type: in vivo, human; details: after two-week treatment
H. pylori, strain 119/95 [4] = test system: H. pylori, strain 119/95
Protocol: Laboratory experimental animals: twenty eight 6 week-old BALB/cA (female) mice weighing 25±2 g (FIG. 1). […] Two weeks after the last challenge, seven mice were inoculated intragastrically for nine successive days by the same method with a solution of calcium or sodium salt of alpha-ketoglutaric acid (0.2 ml, at concentration 30 mM) (group I A). The remaining seven mice were sham-treated with 0.01 M phosphorate buffer—PBS (group I B) as animals from group I A.
Further fourteen mice from group II A and II B were treated with 0.2 ml PBS according to the scheme operating by the infection of the animals with H. pylori. Two weeks after the above treatment seven mice were continuously inoculated with PBS (0.2 ml) for three consecutive days. The remaining seven mice were treated with a solution of salts of alpha-ketoglutaric acid (0.2 ml, concentration 30 mM) (group II A).
On the 30th day of the experiment all mice were sacrificed using CO2. For further analyses blood and stomach samples from mice infected with H. pylori with or without the following inoculation with salts of alpha-ketoglutaric acid were collected. In this experiment the relationship between colonisation level of mouse stomach mucosa (n=28) by H. pylori and the mice treated intragastrically with salts of alpha-ketoglutaric acid were studied in accordance with the time regime as described above.
37° C., under microaerophilic conditions for 7-10 days. From the half of the antrum gastric mucosa was scraped off and mixed with 500 μl PBS sterilized. After homogenate balancing it was noticed that the amount of the scraped mucosa from the half of the antrum was generally between 40 μg a 50 μg. For calculation of number of H. pylori cells, a 100 μl of gastric mucosa homogenate was smeared onto GAB-CAMP agar plates and incubated at temp. 37° C., for 5-10 days, under microaerophilic conditions. Homogenized mucosa samples from each mouse were examined in triplicate. The results are presented as the mean value±SD. The presence of H. pylori was identified by colony morphology and urease-, oxidase- and catalase tests, as well as by morphological examination of cells by Gram-staining.

gastrin = details: infected with H. pylori then alpha-ketoglutarate, versus control group (PBS); p<0.01
[5] = 2-3 years old rats with low initial blood AKG (below 0.1 ug/ml), feed additive; controls did not survive; cited from earlier work
[6] = PBS + AKG (Group IV B), non-infected mice
[7] = listed as salts of alpha-ketoglutaric acid
[8] = PBS + AKG (Group II A), non-infected mice

Structure (SMILES): O=C(O)CCC(=O)C(=O)O [AKG, alpha-ketoglutarate]
- H. pylori cultivated: Number of mice infected/in group (H. pylori, strain 119/95 [1]; H. pylori + AKG (Group III B), 0.2 ml 30 mM intragastrically for 3 days starting 8 days after last challenge, day 20): 0/16
- H. pylori cultivated: Number of bacteria (cfu)/mouse (H. pylori, strain 119/95 [1]; H. pylori + AKG (Group III B), H. pylori + PBS gave 4.3 × 10^2 ± 5.0 × 10^1): 0 cfu/mouse
- H. pylori cultivated: Number of bacteria (cfu)/mouse (H. pylori, strain 119/95 [1]; [6]): 0 cfu/mouse
- H. pylori cultivated: Number of mice infected/in group (H. pylori, strain 119/95 [1]; [6]): 0/16
- H. pylori colonies cultured from gastric mucosa (H. pylori, strain 119/95 [1]): no H. pylori colonies were found
- H. pylori colonies cultured from gastric mucosa (H. pylori, strain 119/95 [1]; [7]): not found; also recorded: no H. pylori colony was cultured
- effect on colonisation of gastric mucosa by H. pylori (H. pylori, strain 119/95 [1]): completely stopped colonisation and fully eradicated H. pylori
- effect on colonisation of gastric mucosa by H. pylori (H. pylori, strain 119/95 [1]; [7]): total inhibitory effect on bacterial colonisation and fully eradication of H. pylori bacteria from gastric mucosa
- 16S rDNA PCR - Helicobacter genus: Number of mice with H. pylori DNA/in group ([2]; H. pylori + AKG (Group III B)): 0/16
- 16S rDNA PCR - Helicobacter genus: Number of mice with H. pylori DNA/in group [2, 6]: 0/16
- H. pylori DNA / sequences specific for H. pylori in PCR products [2]: no H. pylori DNA was found
- H. pylori DNA / sequences specific for H. pylori in PCR products [2, 7]: not found
- morphological changes in thickening of mucosa in stomach and small intestine, villus width and crypt depth [3]: no morphological changes
- changes in the amount of lactic acid bacteria isolated from scraped stomach mucosa (antral part) (lactic acid bacteria): no changes
- time for which lack of dyspepsia symptoms was maintained after end of administration (H. pylori infection): one
- H. pylori cultivated: Number of mice infected/in group (H. pylori, strain 119/95 [4]; H. pylori + AKG (Group I A), 0.2 ml 30 mM intragastrically for 9 days starting 2 weeks after last challenge, day 30): 7/7
- H. pylori cultivated: Number of bacteria (cfu)/mouse (H. pylori, strain 119/95 [4]; H. pylori + AKG (Group I A), mean ± SD, H. pylori + PBS gave 7.8 × 10^2 ± 5.0 × 10^1): 3.8 × 10^2 ± 5.0 × 10^1 cfu/mouse
- H. pylori cultivated: Number of bacteria (cfu)/mouse (H. pylori, strain 119/95 [4]; [8]): 0 cfu/mouse
- H. pylori cultivated: Number of mice infected/in group (H. pylori, strain 119/95 [4]; [8]): 0/7
- number of colonies (mean±SD) isolated from antral/pyloric part of gastric mucosa (H. pylori, strain 119/95 [4]; infected mice treated 9 days (Group I A), infected only 7.8×10^2±5.0×10^1): 3.8×10^2±5.0×10^1
- reduction of degree of gastric mucosa colonisation by H. pylori (H. pylori, strain 119/95 [4]; nine intragastric administrations on 9 consecutive days, started 14 days after last infective dose, versus mice infected only): 49%
- reduction in the number of gastrin-producing cells in the pyloric region of the stomach glands (gastrin): 17%
- differences in number of CCK-producing cells in the small intestine (cholecystokinin (CCK); H. pylori + alpha-ketoglutarate versus alpha-ketoglutarate only, p=0.25): no significant differences
- decrease in number of CCK producing cells in the small intestine (cholecystokinin (CCK); animals treated with alpha-ketoglutarate versus non-infected mice given only PBS, tendency, p=0.1): 30%

Structure (SMILES): O.O.O=C([O-])CCC(=O)C(=O)[O-].[Na+].[Na+] [Na2AKG*2H2O]
- survival of the experiment [5]: survived the experiment
